Literature values, collected in PubChem BioAssay AID1259409 (Chemical Carcinogenesis Research Information System (CCRIS), 2018).

Tested on: rodent chemically induced tumor inhibition, incidence and multiplicity
Assay: CCRIS tumor inhibitor studies
Details: Route [Inhibitor]: ORAL, Species: RAT, Strain/Sex: F344/MALE, Promoter: NONE USED

For `O=C1O[C@H]([C@@H](O)CO)C(O)=C1O`, the “tumour outcome (control, treated, inhibition, significance)” value (Carcinogen: N-BIS(2-HYDROXYPROPYL)NITROSAMINE, 53609-64-6, Dose [Inhibitor]: 0, 5% IN DIET FOR 30 WK BEGINNING POST CARCINOGEN TREATMENT (STUDY DURATION: 32 WK), Target Tissue: Type of Lesion: BLADDER: ADENOMA, Dose [Carcinogen]: 0.1% IN DRINKING WATER FOR 2 WK) is listed as 5%, 10%, -100%, not calculated, the “tumour outcome (control, treated, inhibition, significance)” value (Carcinogen: N-BIS(2-HYDROXYPROPYL)NITROSAMINE, 53609-64-6, Dose [Inhibitor]: 0, 5% IN DIET FOR 30 WK BEGINNING POST CARCINOGEN TREATMENT (STUDY DURATION: 32 WK), Target Tissue: Type of Lesion: KIDNEY: TUMOR, Dose [Carcinogen]: 0.1% IN DRINKING WATER FOR 2 WK) is listed as 10%, 30%, -200%, not calculated and the “tumour outcome (control, treated, inhibition, significance)” value (Carcinogen: N-BIS(2-HYDROXYPROPYL)NITROSAMINE, 53609-64-6, Dose [Inhibitor]: 0, 5% IN DIET FOR 30 WK BEGINNING POST CARCINOGEN TREATMENT (STUDY DURATION: 32 WK), Target Tissue: Type of Lesion: LUNG: ADENOMA, Dose [Carcinogen]: 0.1% IN DRINKING WATER FOR 2 WK) is listed as 100%, 100%, 0%, not significant. The “tumour outcome (control, treated, inhibition, significance)” value (Carcinogen: N-BIS(2-HYDROXYPROPYL)NITROSAMINE, 53609-64-6, Dose [Inhibitor]: 0, 5% IN DIET FOR 30 WK BEGINNING POST CARCINOGEN TREATMENT (STUDY DURATION: 32 WK), Target Tissue: Type of Lesion: LUNG: CARCINOMA, Dose [Carcinogen]: 0.1% IN DRINKING WATER FOR 2 WK) was 45%, 20%, 56%, not calculated, the “tumour outcome (control, treated, inhibition, significance)” value (Carcinogen: N-BIS(2-HYDROXYPROPYL)NITROSAMINE, 53609-64-6, Dose [Inhibitor]: 0, 5% IN DIET FOR 30 WK BEGINNING POST CARCINOGEN TREATMENT (STUDY DURATION: 32 WK), Target Tissue: Type of Lesion: THYROID: ADENOMA, Dose [Carcinogen]: 0.1% IN DRINKING WATER FOR 2 WK) was 5%, 30%, -500%, not calculated and the “tumour outcome (control, treated, inhibition, significance)” value (Carcinogen: N-BIS(2-HYDROXYPROPYL)NITROSAMINE, 53609-64-6, Dose [Inhibitor]: 0, 5% IN DIET FOR 30 WK BEGINNING POST CARCINOGEN TREATMENT (STUDY DURATION: 32 WK), Target Tissue: Type of Lesion: THYROID: CARCINOMA, Dose [Carcinogen]: 0.1% IN DRINKING WATER FOR 2 WK) was 20%, 10%, 50%, not calculated. The “tumour outcome (control, treated, inhibition, significance)” value (Carcinogen: N-BUTYL-N-(4-HYDROXYBUTYL)NITROSAMINE, 3817-11-6, Dose [Inhibitor]: 4.45% IN BASAL DIET ADMINISTERED SIMULTANEOUSLY WITH CARCINOGEN DOSE FOR 20 WK (STUDY DURATION: 20 WK), Target Tissue: Type of Lesion: BLADDER: CARCINOMA, Dose [Carcinogen]: 0.025% IN DRINKING WATER FOR 20 WK) was 3/15 (20%), 6/14 (43%), -115%, not calculated, the “tumour outcome (control, treated, inhibition, significance)” value (Carcinogen: N-BUTYL-N-(4-HYDROXYBUTYL)NITROSAMINE, 3817-11-6, Dose [Inhibitor]: 4.45% IN BASAL DIET ADMINISTERED SIMULTANEOUSLY WITH CARCINOGEN DOSE FOR 20 WK (STUDY DURATION: 20 WK), Target Tissue: Type of Lesion: BLADDER: PAPILLOMA, Dose [Carcinogen]: 0.025% IN DRINKING WATER FOR 20 WK (FOR A TOTAL INTAKE OF 4.0 MMOL/RAT)) was 4/15 (27%), 4/14 (29%), -7%, not calculated and the “tumour outcome (control, treated, inhibition, significance)” value (Carcinogen: N-BUTYL-N-(4-HYDROXYBUTYL)NITROSAMINE, 3817-11-6, Dose [Inhibitor]: 5% DIET DAILY FOR 34 WK BEGINNING POST CARCINOGEN TREATMENT (STUDY DURATION: 38 WK), Target Tissue: Type of Lesion: URINARY BLADDER: PAPILLOMA, Dose [Carcinogen]: 0.01% IN DRINKING WATER FOR 4 WK) was 33%, 21%, 36%, not significant. For the same molecule, the “tumour outcome (control, treated, inhibition, significance)” value (Carcinogen: N-BUTYL-N-(4-HYDROXYBUTYL)NITROSAMINE, 3817-11-6, Dose [Inhibitor]: 5% IN BASAL DIET ADMINISTERED SIMULTANEOUSLY WITH CARCINOGEN DOSE FOR 20 WK (STUDY DURATION: 20 WK), Target Tissue: Type of Lesion: BLADDER: CARCINOMA, Dose [Carcinogen]: 0.025% IN DRINKING WATER FOR 20 WK) was 3/15 (20%), 6/15 (40%), -100%, not calculated, the “tumour outcome (control, treated, inhibition, significance)” value (Carcinogen: N-BUTYL-N-(4-HYDROXYBUTYL)NITROSAMINE, 3817-11-6, Dose [Inhibitor]: 5% IN BASAL DIET ADMINISTERED SIMULTANEOUSLY WITH CARCINOGEN DOSE FOR 20 WK (STUDY DURATION: 20 WK), Target Tissue: Type of Lesion: BLADDER: PAPILLOMA, Dose [Carcinogen]: 0.025% IN DRINKING WATER FOR 20 WK (FOR A TOTAL INTAKE OF 4.7 MMOL/RAT)) was 4/15 (27%), 2/15 (13%), 50%, not significant and the “tumour outcome (control, treated, inhibition, significance)” value (Carcinogen: N-ETHYL-N-(4-HYDROXYBUTYL)NITROSAMINE, 54897-62-0, Dose [Inhibitor]: 4.45% IN BASAL DIET ADMINISTERED SIMULTANEOUSLY WITH CARCINOGEN DOSE FOR 20 WK (STUDY DURATION: 20 WK), Target Tissue: Type of Lesion: BLADDER: CARCINOMA, Dose [Carcinogen]: 0.021% IN DRINKING WATER FOR 20 WK) was 13/15 (87%), 14/15 (93%), -8%, not calculated. The “tumour outcome (control, treated, inhibition, significance)” value (Carcinogen: N-ETHYL-N-(4-HYDROXYBUTYL)NITROSAMINE, 54897-62-0, Dose [Inhibitor]: 4.45% IN BASAL DIET ADMINISTERED SIMULTANEOUSLY WITH CARCINOGEN DOSE FOR 20 WK (STUDY DURATION: 20 WK), Target Tissue: Type of Lesion: BLADDER: PAPILLOMA, Dose [Carcinogen]: 0.021% IN DRINKING WATER FOR 20 WK) was 14/15 (93%), 15/15 (100%), -7%, not calculated and the “tumour outcome (control, treated, inhibition, significance)” value (Carcinogen: N-ETHYL-N-(4-HYDROXYBUTYL)NITROSAMINE, 54897-62-0, Dose [Inhibitor]: 5% IN BASAL DIET ADMINISTERED SIMULTANEOUSLY WITH CARCINOGEN DOSE FOR 20 WK (STUDY DURATION: 20 WK), Target Tissue: Type of Lesion: BLADDER: CARCINOMA, Dose [Carcinogen]: 0.021% IN DRINKING WATER FOR 20 WK) was 13/15 (87%), 13/15 (87%), 0%, not significant.
